Experimental data taken from patent US5482967A, “Condensed heterocyclic compounds, their production and use” (Takeda Chemical Industries, Ltd., priority 1992, dated 1996).
pIC50: −log10 of the molar value.

These molecules were tested against substance P receptor (Homo sapiens, UniProt P25103) (assay: Radioligand receptor binding inhibitory assay using receptor from human lymphoblast cells (IM-9), 125I-BHSP). Conditions: IM-9 receptor, 25° C., 30 minutes.
Method: The method of A. Margaret et al. [Molecular Pharmacology 42, 458 (1992)] was modified and used. The receptor was prepared from human lymphoblast cells (IM-9). IM-9 cells were grown in 175 cm^2 tissue culture flasks (100 ml×10) at a density approximately 2×10^5 /ml of RPMI 1640 with L-glutamine, 10% (V/V) heat inactivated fetal calf serum, penicillin (100 u/ml), and streptomycin (100 μg/ml) at 37° C. in 5% CO2 /95% air for 3 days. IM-9 cells were obtained by centrifugation at 500×g for 5 minutes at 5° C. The pellet obtained was washed once with phosphate buffer (Flow Laboratories, CAT No. 28-103-05), homogenized using Polytron homogenizer (Kinematika, Germany) in 30 ml of 50 mM Tris-HCl buffer containing 120 mM NaCl, 5 mM KCl, 2 μg/ml phenylmethyl sulfonyl fluoride, and 1 mM ethylenediamine tetra-acetic acid and then centrifuged at 40,000×g for 20 minutes. The residue was washed twice with 30 ml of buffer described above, and preserved frozen (-80° C.).
The above specimen was suspended in a reaction buffer (50 mM Tris-HCl buffer (pH 7.4), 0.02% bovine serum albumin, 1 mM phenylmethylsulfonyl fluoride, 2 μg/ml chymostatin, 40 μg/ml bacitracin, 3 mM manganese chloride) at a protein concentration of 1.5 mg/ml and a 100 μl portion of the suspension was used in the reaction. After addition of the sample and 125I-BHSP (0.46 KBq), the reaction was conducted in 0.2 ml of reaction buffer at 25° C. for 30 minutes. The amount of nonspecific binding was determined by adding substance P at a final concentration of 2×10^-6 M. After the reaction, using a cell harvester (290PHD, Cambridge Technology, Inc., England), rapid filtration was carried out through a glass filter (GF/B, Whatman, U.S.A.) to stop the reaction. After washing three times with 250 μl of 50 mM Tris-HCl buffer (pH 7.4) containing 0.02% bovine serum albumin, the radioactivity remaining on the filter was measured with a gamma counter. Before use, the filter was immersed in 0.1% polyethyleneimine for 24 hours and air-dried.

substance P receptor, sequence (P25103 whole entry): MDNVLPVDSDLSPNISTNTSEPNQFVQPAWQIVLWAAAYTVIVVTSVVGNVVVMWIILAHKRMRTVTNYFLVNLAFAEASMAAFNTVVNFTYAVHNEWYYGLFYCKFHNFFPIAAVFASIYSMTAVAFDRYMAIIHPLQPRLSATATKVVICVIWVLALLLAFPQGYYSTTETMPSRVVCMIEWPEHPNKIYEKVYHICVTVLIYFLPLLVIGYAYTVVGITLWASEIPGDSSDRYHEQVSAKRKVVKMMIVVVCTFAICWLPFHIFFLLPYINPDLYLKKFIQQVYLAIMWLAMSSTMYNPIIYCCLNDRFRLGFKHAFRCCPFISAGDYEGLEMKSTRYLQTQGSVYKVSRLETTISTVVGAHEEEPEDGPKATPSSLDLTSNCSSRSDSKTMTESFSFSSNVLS

Row | Structure (SMILES) | pIC50
1 | CN(Cc1cc(C(F)(F)F)cc(C(F)(F)F)c1)C(=O)[C@H]1[C@@H](c2ccccc2)c2ccccc2C(=O)N1C (relative stereo) [Example 279, 3,4-cis-N-[3,5-Bis(trifluoromethyl)benzyl]-1,2,3,4-tetrahydro-N-2-dimethyl-1-oxo-4-phenyl-3-isoquinolinecarboxamide] | 7.47
2 | CN(Cc1cc(C(F)(F)F)cc(C(F)(F)F)c1)C(=O)[C@H]1[C@H](c2ccc(F)cc2)c2ccccc2C(=O)N1C (relative stereo) [Example 280, 3,4-trans-N-[3,5-Bis(trifluoromethyl)benzyl]-4-(4-fluorophenyl)-1,2,3,4-tetrahydro-N,2-dimethyl-1-oxo-3-isoquinolinecarboxamide] | 7.24
3 | CN(Cc1cc(C(F)(F)F)cc(C(F)(F)F)c1)C(=O)[C@@H]1OC(=O)c2ccccc2[C@@H]1c1ccccc1 (relative stereo) [Example 281, 3,4-cis-N-[3,5-Bis(trifluoromethyl)benzyl]-3,4-dihydro-N-methyl-1-oxo-4-phenyl-1H-2-benzopyran-3-carboxamide] | 7.44
4 | Cc1ccccc1-c1c(C(=O)NCc2cc(C(F)(F)F)cc(C(F)(F)F)c2)n(C)c(=O)c2ccccc12 [Example 101, N-[3,5-Bis(trifluoromethyl)benzyl]-1,2-dihydro-2-methyl-4-(2-methylphenyl)-1-oxo-3-isoquinolinecarboxamide] | 8.60
5 | Cc1ccccc1-c1c(C(=O)N(C)Cc2ccccc2)n(C)c(=O)c2ccccc12 [Example 103, N-Benzyl-1,2-dihydro-N,2-dimethyl-4-(2-methylphenyl)-1-oxo-3-isoquinolinecarboxamide] | 7.47
6 | COc1ccccc1CN(C)C(=O)c1c(-c2ccccc2C)c2ccccc2c(=O)n1C [Example 104, 1,2-Dihydro-N-(2-methoxybenzyl)-N,2-dimethyl-4-(2-methylphenyl)-1-oxo-3-isoquinolinecarboxamide] | 7.80
7 | Cc1ccccc1-c1c(C(=O)N(C)Cc2ccccc2Cl)n(C)c(=O)c2ccccc12 [Example 105, N-(2-Chlorobenzyl)-1,2-dihydro-N,2-dimethyl-4-(2-methylphenyl)-1-oxo-3-isoquinolinecarboxsmide] | 7.72
8 | Cc1cc(C)cc(CN(C)C(=O)c2c(-c3ccccc3C)c3ccccc3c(=O)n2C)c1 [Example 106, 1,2-Dihydro-N-(3,5-dimethylbenzyl)-N,2-dimethyl-4-(2-methylphenyl)-1-oxo-3-isoquinolinecarboxamide] | 7.52
9 | CCN(Cc1ccccc1OC)C(=O)c1c(-c2ccccc2C)c2ccccc2c(=O)n1C [Example 107, N-Ethyl-1,2-dihydro-N-(2-methoxybenzyl)-2-methyl-4-(2-methylphenyl)-1-oxo-3-isoquinolinecarboxamide] | 7.47
10 | COc1ccccc1CN(C)C(=O)c1c(-c2ccccc2)c2ccccc2c(=O)n1C [Example 108, 1,2-Dihydro-N-(2-methoxybenzyl)-N,2-dimethyl-1-oxo-4-phenyl-3-isoquinolinecarboxamide] | 7.52
11 | COc1ccc(CNC(=O)c2c(-c3ccccc3)c3cc(C)c(C)cc3c(=O)n2C)cc1 [Example 109, 1,2-Dihydro-N-(4-methoxybenzyl)-2,6,7-trimethyl-1-oxo-4-phenyl-3-isoquinolinecarboxamide] | 7.30
12 | COc1ccccc1CNC(=O)c1c(-c2ccccc2)c2cc(C)c(C)cc2c(=O)n1C [Example 110, 1,2-Dihydro-N-(2-methoxybenzyl)-2,6,7-trimethyl-1-oxo-4-phenyl-3-isoquinolinecarboxamide] | 7.05
13 | COc1ccccc1CN(C)C(=O)c1c(-c2ccccc2)c2cc(C)c(C)cc2c(=O)n1C [Example 111, 1,2-Dihydro-N-(2-methoxybenzyl)-N,2,6,7-tetramethyl-1-oxo-4-phenyl-3-isoquinolinecarboxamide] | 7.01
14 | Cc1cc2c(-c3ccccc3)c(C(=O)N(C)Cc3cc(C(F)(F)F)cc(C(F)(F)F)c3)n(C)c(=O)c2cc1C [Example 112, N-[3,5-Bis(trifluoromethyl)benzyl]-1,2-dihydro-N,2,6,7-tetramethyl-1-oxo-4-phenyl-3-isoquinolinecarboxamide] | 8.08
15 | Cc1cccc(C)c1-c1c(C(=O)NCc2cc(C(F)(F)F)cc(C(F)(F)F)c2)n(C)c(=O)c2ccccc12 [Example 122, N-[3,5-Bis(trifluoromethyl)benzyl]-1,2-dihydro-2-methyl-4-(2,6-dimethylphenyl)-1-oxo-3-isoquinolinecarboxamide] | 7.09
16 | Cc1cccc(C)c1-c1c(C(=O)N(C)Cc2cc(C(F)(F)F)cc(C(F)(F)F)c2)n(C)c(=O)c2ccccc12 [Example 123, N-[3,5-Bis(trifluoromethyl)benzyl]-1,2-dihydro-4-(2,6-dimethylphenyl)-N,2-dimethyl-1-oxo-3-isoquinolinecarboxamide] | 7.34
17 | Cc1ccc(CNC(=O)c2c(-c3ccccc3)c3cc(C)c(C)cc3c(=O)n2C)cc1 [Example 127, 1,2-Dihydro-2,6,7-trimethyl-N-(4-methylbenzyl)-1-oxo-4-phenyl-3-isoquinolinecarboxamide] | 8.06
18 | COc1cccc(CNC(=O)c2c(-c3ccccc3)c3cc(C)c(C)cc3c(=O)n2C)c1 [Example 128, 1,2-Dihydro-N-(3-methoxybenzyl)-2,6,7-trimethyl-1-oxo-4-phenyl-3-isoquinolinecarboxamide] | 7.06
19 | Cc1cc2c(-c3ccccc3)c(C(=O)NCc3cccc(Cl)c3)n(C)c(=O)c2cc1C [Example 130, N-(3-Chlorobenzyl)-1,2-dihydro-2,6,7-trimethyl-1-oxo-4-phenyl-3-isoquinolinecarboxamide] | 7.42
20 | Cc1cc2c(-c3ccccc3)c(C(=O)NCc3ccccc3Cl)n(C)c(=O)c2cc1C [Example 131, N-(2-Chlorobenzyl)-1,2-dihydro-2,6,7-trimethyl-1-oxo-4-phenyl-3-isoquinolinecarboxamide] | 7.07
21 | Cn1c(C(=O)NCc2cc(C(F)(F)F)cc(C(F)(F)F)c2)c(-c2ccccc2)c2ccccc2c1=O [Example 156, N-[3,5-Bis(trifluoromethyl)benzyl]-1,2-dihydro-2-methyl-1-oxo-4-phenyl-3-isoquinolinecarboxamide] | 8.21
22 | CN(Cc1cc(C(F)(F)F)cc(C(F)(F)F)c1)C(=O)c1c(-c2ccccc2)c2ccccc2c(=O)n1C [Example 157, N-[3,5-Bis(trifluoromethyl)benzyl]-1,2-dihydro-N,2-dimethyl-1-oxo-4-phenyl-3-isoquinolinecarboxamide] | 8.92
23 | COc1ccccc1-c1c(C(=O)NCc2cc(C(F)(F)F)cc(C(F)(F)F)c2)n(C)c(=O)c2ccccc12 [Example 158, N-[3,5-Bis(trifluoromethyl)benzyl]-1,2-dihydro-4-(2-methoxyphenyl)-2-methyl-1-oxo-3-isoquinolinecarboxamide] | 7.11
24 | COc1ccccc1-c1c(C(=O)N(C)Cc2cc(C(F)(F)F)cc(C(F)(F)F)c2)n(C)c(=O)c2ccccc12 [Example 159, N-[3,5-Bis(trifluoromethyl)benzyl]-1,2-dihydro-4-(2-methoxyphenyl)-N,2-dimethyl-1-oxo-3-isoquinolinecarboxamide] | 7.92
25 | Cn1c(C(=O)NCc2cc(C(F)(F)F)cc(C(F)(F)F)c2)c(-c2ccc(F)cc2)c2ccccc2c1=O [Example 165, N-[3,5-Bis(trifluoromethyl)benzyl]-4-(4-fluorophenyl)-1,2-dihydro-2-methyl-1-oxo-3-isoquinolinecarboxamide] | 7.62
26 | CN(Cc1cc(C(F)(F)F)cc(C(F)(F)F)c1)C(=O)c1c(-c2ccc(F)cc2)c2ccccc2c(=O)n1C [Example 166, N-[3,5-Bis(trifluoromethyl)benzyl]-4-(4-fluorophenyl)-1,2-dihydro-N,2-dimethyl-1-oxo-3-isoquinolinecarboxamide] | 9.46
27 | Cc1ccc(CNC(=O)c2c(-c3ccccc3)c3ccccc3c(=O)n2C)cc1 [Example 170, 1,2-Dihydro-2-methyl-N-(4-methylbenzyl)-1-oxo-4-phenyl-3isoquinolinecarboxamide] | 7.72
28 | Cn1c(C(=O)NCc2ccc(C(F)(F)F)cc2)c(-c2ccccc2)c2ccccc2c1=O [Example 171, 1,2-Dihydro-2-methyl-1-oxo-4-phenyl-N-[4-(trifluoromethyl)benzyl]-3-isoquinolinecarboxamide] | 7.70
29 | CN(Cc1cc(C(F)(F)F)cc(C(F)(F)F)c1)C(=O)c1[nH]c(=O)c2ccccc2c1-c1ccccc1 [Example 172, N-[3,5-Bis(trifluoromethyl)benzyl]-1,2-dihydro-N-methyl-1-oxo-4-phenyl-3-isoquinolinecarboxamide] | 9.30
30 | Cn1c(C(=O)NCc2cc(C(F)(F)F)cc(C(F)(F)F)c2)c(-c2ccccc2)c2cc(Cl)ccc2c1=O [Example 173, N-[3,5-Bis(trifluoromethyl)benzyl]-6-chloro-1,2-dihydro-2-methyl-1-oxo-4-phenyl-3-isoquinolinecarboxamide] | 7.62
